Counter-ions that a name gives are not always drawn.
What was measured:
NanoLuc-hACKR3 = molecular target: T1, NanoLuc-hACKR3 (Homo sapiens, UniProt P25106); assay: NanoBRET binding study (displacement of fluorescently labelled CXCL12); conditions: displacement of 0.3 nM CXCL12-AF647; membranes of HEK293T cells expressing NanoLuc-ACKR3; 1 hour incubation; read-out: Affinity
T1 construct: expressed in transfected cells; host or cells: HEK293T (transient, PEI; membrane preparation)
Protocol: Membranes of HEK293T cells that transiently express the NanoLuc-hACKR3 were produced. 2 million HEK293T cells were seeded per […] dish and were transfected the next day using a DNA/PEI-mix containing 0.25 μg plasmid DNA encoding for the ACKR3, 4.75 μg pcDEF3 plasmid DNA and 30 μg linear PEI. Two days after transfection, cells were collected in PBS and pelleted by centrifugation. Cell pellets were resuspended in ice-cold membrane buffer (15 mM Tris, 0.3 mM EDTA, 2 mM MgCl2, pH 7.4 at 4° C.) and were dounce-homogenized on ice by plunging the pestle […] with 1500 rpm. Cell homogenates were subsequently subjected to two freeze-thaw cycles using liquid nitrogen. Next, the cell homogenates were centrifuged at 40,000 g and pellets were resuspended in Tris-sucrose buffer (20 mM Tris, 250 mM Sucrose, pH 7.4 at 4° C.). Finally, the membrane samples were homogenized using a 23-gauge needle, snap-frozen with liquid nitrogen and stored until further experimentation at −80° C.
Binding reactions were measured in triplicate on white low-volume 384-well plates and started by combining 0.3 nM fluorescently labelled CXCL12 (CXCL12 labelled with a AF647® dye in a molar ratio of dye:peptide of 1:1, purchased from ALMAC, h-SDF-1α (AF647®), cat. No. CAF-11, Sequence:
[…](Ale xa647®)ALN), increasing concentrations of test compound (10^−5 M-10^−11 M) with 35 ng membranes (protein content) per well of HEK293T cells expressing the NanoLuc-ACKR3. All dilutions were prepared in HBSS supplemented with 0.2% BSA. After assembling the binding reaction, the plate was flash-centrifuged at 500 g. Binding reactions were then incubated for 1 hour after which NanoGlo substrate was added (310 times diluted from stock concentration) to a final volume of 13.5 μL. The reaction plate was again pulse-centrifuged to 500 g and the total light intensity was measured for 460 nm wavelength with 80 nm bandwidth and separately for wavelengths ≥610 nm using the PHERAstar-FSX (BMG Labtech, Ortenberg, Germany) with a dual emission filter. The ratio of light intensities (>610 nm over 460 nm) is a measure for the relative binding of CXCL12-A647 to the NanoLuc-ACKR3. The pharmacological data are presented in Appendix 1.

CXCL12 = assay: Target engagement study in mice (blood CXCL12 by ELISA); format: in vivo; conditions: male CD1 mice, IP, 30 mg/kg; for target engagement compared with reference compound: 16 h, versus ACT-1004-1239
Protocol: Male CD1 mice were administered IP with compound dissolved in vehicle (10% HP-β-CD in 100 mM Citrate buffer, pH 7) at a dose of 30 mg/kg and mice were sacrificed 16 h (n=3 per time point) following compound administration. Blood samples were harvested and CXCL12 concentration was determined by CXCL12 ELISA kit.

[1] = Single-dose pharmacokinetics study in mice; format: in vivo; conditions: male CD1 mice, IP, 30 mg/kg; for pharmacokinetic profiles (half-lives) compared with reference compound: versus ACT-1004-1239; for half-life: mouse, blood, LC-MS/MS, read-out: PK half-life
Protocol: Male CD1 mice were administered IP with compound dissolved in vehicle (10% HP-β-CD in 100 mM Citrate buffer, pH 7) at a dose of 30 mg/kg and mice were sacrificed at different time points (n=3 per time point) following compound administration. Blood samples were harvested at different time points and compound concentration was determined by LC-MS/MS.

[2] = In vitro microsomal stability assay (metabolic stability); format: in vitro ADME, mouse; conditions: for half-life at 10 μM: mouse liver microsomes (male CD-1), NADPH regenerative system, 10 μM compound, 15, 30 or 60 minutes; for metabolic stability compared with reference compound: mouse liver microsomes, versus ACT-1004-1239
Protocol: Mouse liver microsomes (from S9 liver fraction from male CD-1 mice) are co-incubated with an NADPH regenerative system (1.3 mM NADP+, 3.3. mM glucose-6-phoase, 3.3 mM MgCl2 and 0.4 units/ml glucose-6-phosphate-dehydrogenase) and 10 μM compound for 15, 30 or 60 minutes. Reaction was terminated by centrifugation at max speed and samples were analyzed by LC-MS.

T1 sequence (P25106 whole entry): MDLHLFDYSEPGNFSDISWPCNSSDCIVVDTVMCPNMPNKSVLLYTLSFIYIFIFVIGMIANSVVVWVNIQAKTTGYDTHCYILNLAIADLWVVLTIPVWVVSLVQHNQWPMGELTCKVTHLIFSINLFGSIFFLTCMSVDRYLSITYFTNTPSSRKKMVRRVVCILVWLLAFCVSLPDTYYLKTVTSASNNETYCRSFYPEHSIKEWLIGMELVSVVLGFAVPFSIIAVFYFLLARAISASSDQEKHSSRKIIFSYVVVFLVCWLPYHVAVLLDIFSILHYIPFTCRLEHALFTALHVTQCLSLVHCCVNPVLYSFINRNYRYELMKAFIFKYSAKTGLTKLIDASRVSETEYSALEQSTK

| Structure (SMILES) | Ki (NanoLuc-hACKR3) [nM] | target engagement compared with reference compound (CXCL12) | Target engagement (CXCL12 fold-increase) (CXCL12; blood 16 h after administration, CXCL12 ELISA) | pharmacokinetic profiles (half-lives) compared with reference compound [1] | half-life [1] [h] | half-life at 10 μM [2] [h] | metabolic stability compared with reference compound [2] |
| --- | --- | --- | --- | --- | --- | --- | --- |
| O=C(NCC1CCN(Cc2ccc(N3CCCC3)cc2)CC1)c1cc(-c2ccc(F)cc2F)on1 [Molecule 44, 5-(2,4-difluorophenyl)-N-((1-(4-(pyrrolidin-1-yl)benzyl)piperidin-4-yl)methyl)isoxazole-3-carboxamide] | ≤ 100 | comparable or better than the reference compound | ++ (>3 = ++) | better than the reference compound | > 4 | 2 to 4 | comparable or better than the reference compound |
| O=C(NCC1CCN(C2CCCCC2)CC1)c1cc(-c2ccc(F)cc2F)on1 [Molecule 1, N-[(1-cyclohexylpiperidin-4-yl)methyl]-5-(2,4-difluorophenyl)-1,2-oxazole-3-carboxamide HCl] | ≤ 100 | comparable or better than the reference compound | – | better than the reference compound | 2 to 4 | > 10 | comparable or better than the reference compound |
